Entries after “also recorded” stand apart in the source; their conditions may differ.

For data set [1], the system named is rat hippocampal neurons. As to the kind of experiment: RNA-seq of Aβ42-challenged neurons with dovitinib co-treatment. The data set is classed as cell-based. How it is done:
Basal expression levels were measured in vehicle-treated cells. DEGs identified in Aβ42 condition are compared against their expression values in neurons co-treated with dovinitib. Individual datapoints show fold-changes over baseline (log2-transformed) of n=2 biological replicates. Aβ42 and dovitinib were applied for 24 hours before RNA collection. […] FGF, fibroblast growth factor.
Prior to RNA collection, neuronal cultures were washed with ice-cold HBSS (Thermo Fischer) and lysed with TRIzol reagent (#15596026, Thermo Fisher) by scrapping. The reaction was allowed to proceed on ice for 5 minutes, at which point samples were centrifuged at 12,000 g and 4° C. and supernatants transferred to new tubes before a 1:1 (v/v) dilution with molecular biology-grade 100% ethanol (Millipore Sigma). The RNA extraction protocol was continued using the Direct-zol RNA MicroPrep kit (Zymo Research), in accordance to manufacturer's instructions, and included an on-column DNA digestion step with DNase I. RNA was eluted in 30 μl of water. RNA-seq library preparation and sequencing reactions were conducted at GENEWIZ, Inc. (South Plainfield, NJ, USA). RNA sequencing libraries were prepared using the NEBNext Ultra RNA Library Prep Kit for Illumina following manufacturer's instructions (NEB). Briefly, mRNAs were first enriched with oligo(dT) beads. […] The sequencing libraries were validated on an Agilent TapeStation (Agilent Technologies) and quantified using a Qubit 2.0 Fluorometer (Life Technologies) as well as quantitative PCR (KAPA Biosystems). […] RNA-seq sequencing data were processed and analyzed within the Galaxy web platform, using the public server at usegalaxy.org. First, library adapters and low-quality reads were removed using Trimmomatic (version 0.38) with the following settings: initial ILLUMINACLIP step to cut adapters and other Illumina-specific sequences from the reads, seedMismatches=2, palindromeClipThreshold=30, simpleClipThreshold=10, minAdapterLength=8, keepBothReads=True, AVGQUAL >20, SLIDINGWINDOW: windowSize=4 and requiredQuality=20, and MINLEN=50. […]

For data set [2] the following is noted: Schafer et al., 2016; cited from earlier work.
For a further data set, the system named is neurons. Particulars: Rodriguez et al., 2021; cited from earlier work.
The subject of data set [3] is CREB3L2-ATF4 heterodimers. As to the kind of experiment: Proximity ligation assay (PLA) of axonal CREB3L2-ATF4 heterodimers. Particulars: emetine 100 nM to axons, last 60 minutes of 12-hour Aβ42 protocol. In kind it is cell-based, rat. On the procedure: Hippocampi were dissected from embryonic day (E) 16-18 rat embryos obtained from pregnant Sprague-Dawley dams (Envigo). All animal procedures were approved by the Institutional Animal Care and Use Committee at Columbia University. Cell dissociation was performed using TripLE Express. Neurons (50,000-60,000 per microfluidic chamber) were plated on 0.1 mg ml^-1 poly-D-lysine (Millipore Sigma) and 2 μg ml^-1 laminin (Bio-Techne) coated substrates and grown in Neurobasal supplemented with 10% fetal bovine serum, 2 mM L-glutamine, 1 mM sodium pyruvate, and antibiotics (50 U ml^-1 penicillin-streptomycin). Tripartite microfluidic chambers were produced with Dow Corning Sylgard 184 Silicone Encapsulant Clear Kit (10:1 mix ratio; Ellsworth Adhesives) cured at […] for at least 4 hours following published protocols (Park et al. 2006; Desai et al. 2009). Chamber design incorporated two sets of 200-μm-long microgroove barriers to exclude crossing of cell bodies and dendrites (Taylor et al. 2005; […] et al. 2009). After 24 hours, medium was changed to Neurobasal containing 1×B27 and 2 mM L-glutamine. Subsequent medium changes (half volumes) were performed at DIV4 and thereafter every 3-5 days. To prevent glial cell proliferation, medium changes included 5-flurodeoxyuridine and uridine (final concentration […]; Millipore Sigma) after DIV4. […]

Data set [4] has as its target T1, GFP-tagged H. sapiens CREB3L2, full-length form (UniProt Q70SY1).
T1 sequence: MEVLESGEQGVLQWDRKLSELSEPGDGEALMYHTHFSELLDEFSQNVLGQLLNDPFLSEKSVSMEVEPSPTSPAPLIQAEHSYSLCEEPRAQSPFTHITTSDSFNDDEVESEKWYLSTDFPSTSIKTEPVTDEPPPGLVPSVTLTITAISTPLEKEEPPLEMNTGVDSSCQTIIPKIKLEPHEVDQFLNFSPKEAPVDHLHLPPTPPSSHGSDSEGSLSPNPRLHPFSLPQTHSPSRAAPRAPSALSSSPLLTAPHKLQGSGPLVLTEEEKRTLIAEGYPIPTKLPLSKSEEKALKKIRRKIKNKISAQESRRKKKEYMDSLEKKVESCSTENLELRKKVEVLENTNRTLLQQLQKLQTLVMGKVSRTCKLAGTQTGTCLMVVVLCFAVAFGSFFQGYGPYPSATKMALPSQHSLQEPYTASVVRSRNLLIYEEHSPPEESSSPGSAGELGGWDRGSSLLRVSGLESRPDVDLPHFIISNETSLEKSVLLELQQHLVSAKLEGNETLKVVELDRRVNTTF

In data set [5] the target is GFP-tagged CREB3L2-S1P- (full-length form with mutated S1P site) (UniProt Q70SY1).
The test system of data set [6] is rat hippocampal neurons. Briefly: Neuronal viability (RealTime-Glo MT) after 48-hour Aβ42 stimulation. In kind it is cell-based. As to conditions: lentiviral delivery at DIV1; Aβ42 750 nM 48 hours; relative to wild-type neurons; Aβ42/vehicle ratios. How it is done:
Plots show individual measurements and mean±SEM of n=3 biological replicates. For each background, data are presented as Aβ42/vehicle ratios. ATF4 aZIP: *P-value=0.0167; CREB3L2 aZIP: *P-value=0.0137; unpaired t-tests.
Specific aZIPs sequences were synthesized by Genewiz. CREB3L2 aZIP: 5′-[…]-3′. (SEQ ID NO: 68) ATF4 aZIP: 5′-[…]-3′. […] Lentiviral particles were delivered at DIV1, 24 hours post-dissection. Neuronal cultures were allowed to mature until DIV15 and treated with Aβ42 at 750 nM for 48 hours. Cell viability was assayed using RealTime-Glo MT Cell Viability Assay (Promega) following manufacturer's guidelines; reaction was allowed to proceed for 1 hour before taking luminescence readings (SpectraMax iD5, Molecular Devices). Also see FIGS. 34A-34D.

`CN1CCN(c2ccc3nc(-c4c(N)c5c(F)cccc5[nH]c4=O)[nH]c3c2)CC1` [dovitinib]: the “number of genes surpassing 0.25 differences in head-to-head comparisons” value with rat hippocampal neurons [1] (24-hour Aβ42 + dovitinib vs Aβ42) worked out at 30. Further, in the data set with rat hippocampal neurons [1] (24-hour Aβ42 + dovitinib, log fold-change, n=2), the “number of Aβ42 DEGs (of 203) showing corrective shifts 0.10 with dovitinib co-treatment” value came to 131. The “Vgf log fold-change [Aβ42+dovitinib]” value in the data set with rat hippocampal neurons [1] (24 hours, Aβ42 alone log fold-change 0.57, over vehicle baseline) was determined as 0.07. The “crossing of the blood-brain barrier” value in data set [2] is reported as “can cross”. For the same molecule, the toxicity to neurons result in the data set with neurons is “non-toxic”. For the molecule `CC[C@H]1CN2CCc3cc(OC)c(OC)cc3[C@@H]2C[C@@H]1C[C@H]1NCCc2cc(OC)c(OC)cc21` [emetine], the “Aβ42-induced upregulation of axonal CREB3L2-ATF4 heterodimers (PLA)” value in data set [3] is reported as “completely prevented; also recorded: limited their association in axons to control levels”. For the molecule site 1 protease (S1P), the “CREB3L2 proteolytic cleavage (western blot, coexpression in HEK293)” value in data set [4] is “Coexpression of S2P, but not S1P, together with full-length GFP-CREB3L2 in HEK293 cells is sufficient to promote the activation of CREB3L2”. On to site 2 protease (S2P), for which the “CREB3L2 proteolytic cleavage (western blot, coexpression in HEK293)” value in data set [5] was “Preventing S1P processing by eliminating its cleavage site does not impede S2P-mediated processing”; in data set [4] it was “Coexpression of S2P, but not S1P, together with full-length GFP-CREB3L2 in HEK293 cells is sufficient to promote the activation of CREB3L2”.

B1: ATF4 aZIP: dominant-negative acidic-ZIP peptide targeting ATF4, encoded by nucleotide SEQ ID NO: 69, delivered by lentivirus (protein)
peptide: MDYKDDDDKHMASMTGGQQMGRDPDLEQRAEELARENEELEKEAEELEQELAELTGECKELEKKNEALKEKADSLAKEIQYLKDLIEEVRKARGKKRVP
In the case of B1, the “cell viability in neurons exposed to Aβ42” value with rat hippocampal neurons [6] is given as “significantly improved”.

B2: CREB3L2 aZIP: dominant-negative acidic-ZIP peptide targeting CREB3L2, encoded by nucleotide SEQ ID NO: 68, delivered by lentivirus (protein)
peptide: MDYKDDDDKHMASMTGGQQMGRDPDLEQRAEELARENEELEKEAEELEQELAELRKKVEVLENTNRTLLQQLQKLQTLVMGKVSRTCKLAGTQTGTCLMVVVL
Regarding B2, the “cell viability in neurons exposed to Aβ42” value with rat hippocampal neurons [6] is listed as “significantly improved”.

The values are drawn from patent US20250027085A1, “COMPOSITIONS AND METHODS FOR TREATING ALZHEIMER'S DISEASE UTILIZING A TRANSCRIPTIONAL MASTER REGULATOR OF THE RETROMER COMPLEX” (THE TRUSTEES OF COLUMBIA UNIVERSITY IN THE CITY OF NEW YORK, priority 2022, published 2025).
